Measurements reported in patent publication US20190055576A1, “USE OF HERBICIDE-TOLERANT PROTEIN” (BEIJING DABEINONG TECHNOLOGY GROUP CO., LTD., priority 2016, published 2019).

Key:
[1] = test system: transgenic Arabidopsis thaliana T1 plants (ALT-1-01, ALT-2-01, ALT-3-01; cytoplasmic or chloroplastic); assay: Herbicide tolerance of transgenic Arabidopsis thaliana T1 plants expressing thifensulfuron hydrolase, resistance classes counted after spraying; type: in vivo; details: for Highly resistant (number of plants with growth status consistent with blank solvent group) / Moderately resistant (number of plants with bolting height less than 1/2 of blank solvent group) / Non-resistant (number of plants dead) / Poorly resistant (number of plants still not capable of bolting): 1-fold field concentration (g ai/ha: Sulfometuron-methyl 30, iodosulfuron-methyl 10, mesosulfuron 14, oxasulfuron 60), 14 days after spraying; for ability of the transformed plants to degrade the herbicide: all the transformed Arabidopsis thaliana T1 plants (ALT-1, ALT-2 and ALT-3), 1-fold field concentration
Text: (§1) T1 transformants were initially selected from the background of untransformed seeds using a glufosinate selection scheme. About 40000 T1 seeds were screened, and 380 T1 positive transformants (PAT gene) were identified with a transformation efficiency of about 0.95%. The plants that were transformed with the recombinant expression vector DBN100632 were Arabidopsis thaliana plants having an ALT-1-01 nucleotide sequence located in the cytoplasm introduced (At cytoplasmic ALT-1-01), and the plants that were transformed with the recombinant expression vector DBN100631 were Arabidopsis thaliana plants having an ALT-1-01 nucleotide sequence located in the chloroplast introduced (At chloroplastic ALT-1-01); the plants that were transformed with the recombinant expression vector DBN100634 were Arabidopsis thaliana plants having an ALT-2-01 nucleotide sequence located in the cytoplasm introduced (At cytoplasmic ALT-2-01), and the plants that were transformed with the recombinant expression vector DBN100633 were Arabidopsis thaliana plants having an ALT-2-01 nucleotide sequence located in the chloroplast introduced (At chloroplastic ALT-2-01); and the plants that were transformed with the recombinant expression vector DBN100636 were Arabidopsis thaliana plants having an ALT-3-01 nucleotide sequence located in the cytoplasm introduced (At cytoplasmic ALT-3-01), and the plants that were transformed with the recombinant expression vector DBN100635 were Arabidopsis thaliana plants having an ALT-3-01 nucleotide sequence located in the chloroplast introduced (At chloroplastic ALT-3-01). The herbicide tolerance effects of At cytoplasmic ALT-1-01 T1 plants, At chloroplastic ALT-1-01 T1 plants, At cytoplasmic ALT-2-01 T1 plants, At chloroplastic ALT-2-01 T1 plants, At cytoplasmic ALT-3-01 T1 plants, At chloroplastic ALT-3-01 T1 plants and wild-type Arabidopsis thaliana plants on Sulfometuron-methyl were detected (14 days after sowing), respectively.
(§2) At cytoplasmic ALT-1-01 T1 plants, At chloroplastic ALT-1-01 T1 plants, At cytoplasmic ALT-2-01 T1 plants, At chloroplastic ALT-2-01 T1 plants, At cytoplasmic ALT-3-01 T1 plants, At chloroplastic ALT-3-01 T1 plants and wild-type Arabidopsis thaliana plants were sprayed with Sulfometuron-methyl (30 g ai/ha, 1-fold field concentration) and a blank solvent (water), respectively. Plants were counted for the resistance situations 14 days after spraying: those having a consistent growth status with the blank solvent (water) group after 14 days were classified as highly resistant plants, those having a bolting height less than ½ of that of the blank solvent (water) group after 14 days were classified as moderately resistant plants, those still not capable of bolting after 14 days were classified as poorly resistant plants, and those dead after 14 days were classified as non-resistant plants. Since each Arabidopsis thaliana T1 plant was an independent transformation event, a significant difference in individual T1 responses could be expected at a given dose.
(§3) At cytoplasmic ALT-1-01 T1 plants, At chloroplastic ALT-1-01 T1 plants, At cytoplasmic ALT-2-01 T1 plants, At chloroplastic ALT-2-01 T1 plants, At cytoplasmic ALT-3-01 T1 plants, At chloroplastic ALT-3-01 T1 plants and wild-type Arabidopsis thaliana plants in Example 4 were sprayed with iodosulfuron-methyl (10 g ai/ha, 1-fold field concentration), mesosulfuron (14 g ai/ha, 1-fold field concentration) and oxasulfuron (60 g ai/ha, 1-fold field concentration), respectively, in addition to Sulfometuron-methyl (30 g ai/ha, 1-fold field concentration) and the blank solvent (water). […]

[2] = test system: wild-type Arabidopsis thaliana plants; assay: Herbicide tolerance of wild-type Arabidopsis thaliana plants, resistance classes counted after spraying; type: in vivo; details: 1-fold field concentration (g ai/ha: Sulfometuron-methyl 30, iodosulfuron-methyl 10, mesosulfuron 14, oxasulfuron 60), 14 days after spraying
Text: as §1, §2, §3

[3] = At chloroplastic ALT-1-01 T1 plants
[4] = At chloroplastic ALT-2-01 T1 plants
[5] = At chloroplastic ALT-3-01 T1 plants
[6] = At cytoplasmic ALT-1-01 T1 plants
[7] = At cytoplasmic ALT-2-01 T1 plants
[8] = At cytoplasmic ALT-3-01 T1 plants

| SMILES | Highly resistant (number of plants with growth status consistent with blank solvent group) [1, 3] | Moderately resistant (number of plants with bolting height less than 1/2 of blank solvent group) [1, 3] | Non-resistant (number of plants dead) [1, 3] | Poorly resistant (number of plants still not capable of bolting) [1, 3] | Highly resistant (number of plants with growth status consistent with blank solvent group) [1, 4] | Moderately resistant (number of plants with bolting height less than 1/2 of blank solvent group) [1, 4] | Non-resistant (number of plants dead) [1, 4] | Poorly resistant (number of plants still not capable of bolting) [1, 4] | Highly resistant (number of plants with growth status consistent with blank solvent group) [1, 5] | Moderately resistant (number of plants with bolting height less than 1/2 of blank solvent group) [1, 5] | Non-resistant (number of plants dead) [1, 5] | Poorly resistant (number of plants still not capable of bolting) [1, 5] | Highly resistant (number of plants with growth status consistent with blank solvent group) [1, 6] | Moderately resistant (number of plants with bolting height less than 1/2 of blank solvent group) [1, 6] | Non-resistant (number of plants dead) [1, 6] | Poorly resistant (number of plants still not capable of bolting) [1, 6] | Highly resistant (number of plants with growth status consistent with blank solvent group) [1, 7] | Moderately resistant (number of plants with bolting height less than 1/2 of blank solvent group) [1, 7] | Non-resistant (number of plants dead) [1, 7] | Poorly resistant (number of plants still not capable of bolting) [1, 7] | other results |
| --- | --- | --- | --- | --- | --- | --- | --- | --- | --- | --- | --- | --- | --- | --- | --- | --- | --- | --- | --- | --- | --- |
| COc1cc(OC)nc(NC(=O)NS(=O)(=O)c2cc(CNS(C)(=O)=O)ccc2C(=O)O)n1 [mesosulfuron] | 0 | 0 | 32 | 0 | 0 | 0 | 30 | 0 | 0 | 0 | 32 | 0 | 0 | 0 | 29 | 0 | 0 | 0 | 32 | 0 | Highly resistant (number of plants with growth status consistent with blank solvent group) [1, 8]: 0; Moderately resistant (number of plants with bolting height less than 1/2 of blank solvent group) [1, 8]: 0; Non-resistant (number of plants dead) [1, 8]: 30; Poorly resistant (number of plants still not capable of bolting) [1, 8]: 0; ability of the transformed plants to degrade the herbicide [1]: did not exhibit the ability to degrade; Highly resistant (number of plants with growth status consistent with blank solvent group) [2]: 0; Moderately resistant (number of plants with bolting height less than 1/2 of blank solvent group) [2]: 0; Non-resistant (number of plants dead) [2]: 28; Poorly resistant (number of plants still not capable of bolting) [2]: 0 |
| Cc1cc(C)nc(NC(=O)NS(=O)(=O)c2ccccc2C(=O)OC2COC2)n1 [oxasulfuron] | 0 | 0 | 30 | 0 | 0 | 0 | 30 | 0 | 0 | 0 | 31 | 0 | 0 | 0 | 28 | 0 | 0 | 0 | 30 | 0 | Highly resistant (number of plants with growth status consistent with blank solvent group) [1, 8]: 0; Moderately resistant (number of plants with bolting height less than 1/2 of blank solvent group) [1, 8]: 0; Non-resistant (number of plants dead) [1, 8]: 30; Poorly resistant (number of plants still not capable of bolting) [1, 8]: 0; ability of the transformed plants to degrade the herbicide [1]: did not exhibit the ability to degrade; Highly resistant (number of plants with growth status consistent with blank solvent group) [2]: 0; Moderately resistant (number of plants with bolting height less than 1/2 of blank solvent group) [2]: 0; Non-resistant (number of plants dead) [2]: 28; Poorly resistant (number of plants still not capable of bolting) [2]: 0 |
| COC(=O)c1ccc(I)cc1S(=O)(=O)NC(=O)Nc1nc(C)nc(OC)n1 [iodosulfuron-methyl] | 0 | 0 | 30 | 0 | 0 | 0 | 31 | 0 | 0 | 0 | 32 | 0 | 0 | 0 | 29 | 0 | 0 | 0 | 30 | 0 | Highly resistant (number of plants with growth status consistent with blank solvent group) [1, 8]: 0; Moderately resistant (number of plants with bolting height less than 1/2 of blank solvent group) [1, 8]: 0; Non-resistant (number of plants dead) [1, 8]: 30; Poorly resistant (number of plants still not capable of bolting) [1, 8]: 0; ability of the transformed plants to degrade the herbicide [1]: did not exhibit the ability to degrade; Highly resistant (number of plants with growth status consistent with blank solvent group) [2]: 0; Moderately resistant (number of plants with bolting height less than 1/2 of blank solvent group) [2]: 0; Non-resistant (number of plants dead) [2]: 29; Poorly resistant (number of plants still not capable of bolting) [2]: 0 |
